Legend:
Thromboxane-A synthase = molecular target: T1, Thromboxane-A synthase (Homo sapiens, UniProt P24557); assay: biochemical; type: tissue-based, Platelet; details: platelet;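 note: enzyme inhibition assay with PGH2 supplied as substrate; in other assays of this panel Not Active means under 50% inhibition at 10 µM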
T1 sequence (P24557 whole entry): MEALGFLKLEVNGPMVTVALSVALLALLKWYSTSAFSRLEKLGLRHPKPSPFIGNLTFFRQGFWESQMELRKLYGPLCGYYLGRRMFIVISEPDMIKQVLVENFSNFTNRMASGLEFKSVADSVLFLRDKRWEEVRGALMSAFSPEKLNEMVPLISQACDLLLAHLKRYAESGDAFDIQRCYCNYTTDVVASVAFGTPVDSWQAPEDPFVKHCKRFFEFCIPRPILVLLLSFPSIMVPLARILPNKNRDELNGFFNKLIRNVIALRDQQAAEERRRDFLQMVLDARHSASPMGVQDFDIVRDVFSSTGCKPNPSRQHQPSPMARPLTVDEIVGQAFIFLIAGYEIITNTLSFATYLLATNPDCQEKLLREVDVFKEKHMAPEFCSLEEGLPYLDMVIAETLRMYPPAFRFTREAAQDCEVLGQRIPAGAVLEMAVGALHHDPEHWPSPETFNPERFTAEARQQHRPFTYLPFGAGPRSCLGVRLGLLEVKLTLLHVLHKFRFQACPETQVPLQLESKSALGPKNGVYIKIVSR

[1] = DRUGMATRIX: Calcium Channel Type L, Phenylalkylamine radioligand binding (ligand: [3H] (-)-Desmethoxyverapamil (D-888)); type: cell membranes, Rattus norvegicus, Wistar, Brain, Membrane; details: Not Active = under 50% inhibition at 10 µM
[2] = molecular target: 5-hydroxytryptamine receptor 1B (Rattus norvegicus, UniProt P28564); type: cell membranes, Wistar, Cerebral cortex, Membrane; note: in other assays of this panel Not Active means under 50% inhibition at 10 µM
5-hydroxytryptamine receptor 1B, sequence (P28564 whole entry): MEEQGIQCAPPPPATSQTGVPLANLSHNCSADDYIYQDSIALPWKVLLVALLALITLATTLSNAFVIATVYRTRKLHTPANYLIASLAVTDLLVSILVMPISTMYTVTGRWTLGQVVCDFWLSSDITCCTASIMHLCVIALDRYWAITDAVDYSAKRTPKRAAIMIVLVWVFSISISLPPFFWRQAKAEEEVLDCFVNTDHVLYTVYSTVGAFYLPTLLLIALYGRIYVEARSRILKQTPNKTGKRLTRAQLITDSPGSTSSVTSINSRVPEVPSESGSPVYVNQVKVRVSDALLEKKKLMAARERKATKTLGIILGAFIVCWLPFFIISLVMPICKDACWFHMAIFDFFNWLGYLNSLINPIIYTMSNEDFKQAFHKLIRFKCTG

[3] = molecular target: Mitogen-activated protein kinase 14 (Homo sapiens, UniProt Q16539); parameters: species or system Escherichia coli;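 note: inhibition of p38alpha enzyme activity in a biochemical kinase assay, with myelin basic protein serving as substrate; in other assays of this panel Not Active means under 50% inhibition at 10 µM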
Mitogen-activated protein kinase 14, sequence (Q16539 whole entry): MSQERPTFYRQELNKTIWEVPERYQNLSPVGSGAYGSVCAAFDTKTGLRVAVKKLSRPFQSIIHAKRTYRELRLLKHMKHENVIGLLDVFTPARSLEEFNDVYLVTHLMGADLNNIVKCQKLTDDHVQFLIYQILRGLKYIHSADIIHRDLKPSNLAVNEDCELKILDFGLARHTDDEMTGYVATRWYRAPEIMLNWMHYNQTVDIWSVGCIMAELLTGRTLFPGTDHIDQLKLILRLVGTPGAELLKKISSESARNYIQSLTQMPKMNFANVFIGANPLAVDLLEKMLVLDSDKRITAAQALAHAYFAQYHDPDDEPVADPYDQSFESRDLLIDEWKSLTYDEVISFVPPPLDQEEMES

[4] = molecular target: Delta-type opioid receptor (Homo sapiens, UniProt P41143); type: cell membranes, HEK293, Membrane; details: hek293; note: in other assays of this panel Not Active means under 50% inhibition at 10 µM
Delta-type opioid receptor, sequence (P41143 whole entry): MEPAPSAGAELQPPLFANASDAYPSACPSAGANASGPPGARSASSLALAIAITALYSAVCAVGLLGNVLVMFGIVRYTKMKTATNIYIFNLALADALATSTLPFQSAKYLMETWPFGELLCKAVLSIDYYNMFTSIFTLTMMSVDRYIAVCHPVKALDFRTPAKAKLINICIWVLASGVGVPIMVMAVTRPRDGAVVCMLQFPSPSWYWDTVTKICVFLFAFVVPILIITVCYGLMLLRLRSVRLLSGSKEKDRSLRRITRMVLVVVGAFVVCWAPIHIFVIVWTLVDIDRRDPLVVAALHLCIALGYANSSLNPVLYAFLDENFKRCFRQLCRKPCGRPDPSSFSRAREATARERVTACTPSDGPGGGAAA

[5] = molecular target: Mitogen-activated protein kinase 1 (Homo sapiens, UniProt P28482); assay: DRUGMATRIX: Protein Serine/Threonine Kinase, ERK2 enzyme inhibition (substrate: Myelin Basic Protein); parameters: species or system Escherichia coli; details: Not Active = under 50% inhibition at 10 µM
Mitogen-activated protein kinase 1, sequence (P28482 whole entry): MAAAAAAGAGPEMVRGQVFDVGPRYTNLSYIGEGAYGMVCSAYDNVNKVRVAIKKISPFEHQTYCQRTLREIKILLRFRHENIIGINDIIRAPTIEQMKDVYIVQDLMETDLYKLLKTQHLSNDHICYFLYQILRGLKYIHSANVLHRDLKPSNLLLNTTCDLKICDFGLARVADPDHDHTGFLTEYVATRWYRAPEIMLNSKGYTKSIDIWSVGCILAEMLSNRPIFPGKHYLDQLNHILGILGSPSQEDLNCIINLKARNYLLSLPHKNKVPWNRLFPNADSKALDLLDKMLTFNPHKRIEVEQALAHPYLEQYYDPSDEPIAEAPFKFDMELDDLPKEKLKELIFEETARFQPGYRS

Row | Compound | IC50 (Thromboxane-A synthase) | IC50 [1] | Ki [1] | IC50 [2] | IC50 [3] | IC50 [4] | IC50 [5] | IC50 ([5]; read-out: IC50) [µM] | IC50 ([1]; read-out: IC50) [µM] | Ki ([1]; read-out: Ki) [µM] | Ki (Thromboxane-A synthase) | Ki [2] | Ki [3] | Ki [4] | Ki [5] | IC50 ([3]; read-out: IC50) [µM]
1 | CCCCC1C(=O)N(c2ccccc2)N(c2ccccc2)C1=O [PHENYLBUTAZONE] | Not Active | Not Active | Not Active | Not Active | Not Active | Not Active | Not Active |  |  |  |  |  |  |  |  | 
2 | Cc1cn[nH]c1 [FOMEPIZOLE] | Not Active | Not Active | Not Active | Not Active | Not Active | Not Active | Not Active |  |  |  |  |  |  |  |  | 
3 | COc1ccccc1OCC(O)CO (centres undefined) [GUAIFENESIN] | Not Active | Not Active | Not Active | Not Active | Not Active | Not Active | Not Active |  |  |  |  |  |  |  |  | 
4 | [N-]=[N+]=CC(=O)OC[C@H](N)C(=O)O [AZASERINE] | Not Active | Not Active | Not Active | Not Active | Not Active | Not Active | Not Active |  |  |  |  |  |  |  |  | 
5 | N[C@@H](Cc1ccc(F)cc1)C(=O)O | Not Active | Not Active | Not Active | Not Active | Not Active | Not Active | Not Active |  |  |  |  |  |  |  |  | 
6 | O=C(/C=C/c1ccc(O)c(O)c1)OCCc1ccccc1 [CAFFEIC ACID PHENETHYL ESTER] | Not Active | Not Active | Not Active | Not Active | Not Active | Not Active |  | 0.686 |  |  |  |  |  |  |  | 
7 | CCOC(=O)C1=C(C)NC(C)=C(C(=O)OC)C1c1cccc(Cl)c1Cl (centres undefined) [FELODIPINE] | Not Active | Not Active | Not Active | Not Active | Not Active | Not Active | Not Active |  |  |  |  |  |  |  |  | 
8 | OCCO [ETHYLENE GLYCOL] | Not Active | Not Active | Not Active | Not Active | Not Active | Not Active | Not Active |  |  |  |  |  |  |  |  | 
9 | CCC[C@@H]1C[C@@H](C(=O)N[C@@H]([C@H]2O[C@H](SC)[C@H](O)[C@@H](O)[C@H]2O)[C@H](C)Cl)N(C)C1 [CLINDAMYCIN] | Not Active | Not Active | Not Active | Not Active | Not Active | Not Active | Not Active |  |  |  |  |  |  |  |  | 
10 | C[C@H]([C@](O)(Cn1cncn1)c1ccc(F)cc1F)S(C)(=O)=O [GENACONAZOLE] | Not Active | Not Active | Not Active | Not Active | Not Active | Not Active | Not Active |  |  |  |  |  |  |  |  | 
11 | Nc1nc(N)nc(NC2CC2)n1 [CYROMAZINE] | Not Active | Not Active | Not Active | Not Active | Not Active | Not Active | Not Active |  |  |  |  |  |  |  |  | 
12 | CC[C@H](C)C(=O)O[C@H]1C[C@H](O)C=C2C=C[C@H](C)[C@H](CC[C@@H](O)C[C@@H](O)CC(=O)O)[C@H]21 [PRAVASTATIN] | Not Active | Not Active | Not Active | Not Active | Not Active | Not Active | Not Active |  |  |  |  |  |  |  |  | 
13 | OCCN1CCN(CCCN2c3ccccc3Sc3ccc(Cl)cc32)CC1 [PERPHENAZINE] | Not Active | Not Active | Not Active | Not Active | Not Active | Not Active | Not Active |  |  |  |  |  |  |  |  | 
14 | CC(C)(C)c1ccc(S(=O)(=O)/C=C/C#N)cc1 [BAY-11-7085] | Not Active | Not Active | Not Active | Not Active | Not Active | Not Active | Not Active |  |  |  |  |  |  |  |  | 
15 | CCC(=O)O[C@H]1[C@H](O[C@@H]2[C@@H](C)[C@H](O[C@H]3C[C@@](C)(OC)[C@@H](O)[C@H](C)O3)[C@@H](C)C(=O)O[C@H](CC)[C@@](C)(O)[C@H](O)[C@@H](C)C(=O)[C@H](C)C[C@@]2(C)O)O[C@H](C)C[C@@H]1N(C)C [ERYTHROMYCIN PROPIONATE] | Not Active | Not Active | Not Active | Not Active | Not Active | Not Active | Not Active |  |  |  |  |  |  |  |  | 
16 | C#C[C@]1(O)CC[C@H]2[C@@H]3CCc4cc(O)ccc4[C@H]3CC[C@@]21C [ETHINYL ESTRADIOL] | Not Active |  |  | Not Active | Not Active | Not Active | Not Active |  | 6.99 | 6.79 |  |  |  |  |  | 

Row | Compound | IC50 (Thromboxane-A synthase) | IC50 [1] | Ki [1] | IC50 [2] | IC50 [3] | IC50 [4] | IC50 [5] | IC50 ([5]; read-out: IC50) [µM] | IC50 ([1]; read-out: IC50) [µM] | Ki ([1]; read-out: Ki) [µM] | Ki (Thromboxane-A synthase) | Ki [2] | Ki [3] | Ki [4] | Ki [5] | IC50 ([3]; read-out: IC50) [µM]
17 | Nc1nc(Cl)nc2c1ncn2[C@H]1C[C@H](O)[C@@H](CO)O1 [CLADRIBINE] | Not Active | Not Active | Not Active | Not Active | Not Active | Not Active | Not Active |  |  |  |  |  |  |  |  | 
18 | CC(C)(Sc1cc(C(C)(C)C)c(O)c(C(C)(C)C)c1)Sc1cc(C(C)(C)C)c(O)c(C(C)(C)C)c1 [PROBUCOL] | Not Active | Not Active | Not Active | Not Active | Not Active | Not Active | Not Active |  |  |  |  |  |  |  |  | 
19 | CC(CCc1ccc(O)cc1)NCCc1ccc(O)c(O)c1 (centres undefined) [DOBUTAMINE] | Not Active | Not Active | Not Active | Not Active | Not Active | Not Active | Not Active |  |  |  |  |  |  |  |  | 
20 | POLYVINYL ALCOHOL | Not Active | Not Active | Not Active | Not Active | Not Active | Not Active | Not Active |  |  |  | Not Active | Not Active | Not Active | Not Active | Not Active | 
21 | CS(=O)(=O)OCCCCOS(C)(=O)=O [BUSULFAN] | Not Active | Not Active | Not Active | Not Active | Not Active | Not Active | Not Active |  |  |  |  |  |  |  |  | 
22 | CC[C@H]1OC(=O)[C@H](C)[C@@H](O[C@H]2C[C@@](C)(OC)[C@@H](O)[C@H](C)O2)[C@H](C)[C@@H](O[C@@H]2O[C@H](C)C[C@H](N(C)C)[C@H]2O)[C@](C)(O)C[C@@H](C)CN(C)[C@H](C)[C@@H](O)[C@]1(C)O [AZITHROMYCIN] | Not Active | Not Active | Not Active | Not Active | Not Active | Not Active | Not Active |  |  |  |  |  |  |  |  | 
23 | CC(=O)OCC(CCn1cnc2cnc(N)nc21)COC(C)=O [FAMCICLOVIR] | Not Active | Not Active | Not Active | Not Active | Not Active | Not Active | Not Active |  |  |  |  |  |  |  |  | 
24 | C/C=C\c1ccc(O)c(OC)c1 [ISOEUGENOL] | Not Active | Not Active | Not Active | Not Active | Not Active | Not Active | Not Active |  |  |  |  |  |  |  |  | 
25 | O=C(c1ccccc1Cl)N1CCC(Cc2ccccc2)CC1 | Not Active | Not Active | Not Active | Not Active |  | Not Active | Not Active |  |  |  |  |  |  |  |  | 0.833
26 | Cc1c(F)c(N2CCNC(C)C2)cc2c1c(=O)c(C(=O)O)cn2C1CC1 (centres undefined) [GREPAFLOXACIN] | Not Active | Not Active | Not Active | Not Active | Not Active | Not Active | Not Active |  |  |  |  |  |  |  |  | 
27 | CC(C(=O)O)c1ccc(-c2ccccc2)c(F)c1 (centres undefined) [FLURBIPROFEN] | Not Active | Not Active | Not Active | Not Active | Not Active | Not Active | Not Active |  |  |  |  |  |  |  |  | 
28 | COC(=O)c1ccccc1O [METHYL SALICYLATE] | Not Active | Not Active | Not Active | Not Active | Not Active | Not Active | Not Active |  |  |  |  |  |  |  |  | 
29 | O=C(O)c1cccnc1 [NIACIN] | Not Active | Not Active | Not Active | Not Active | Not Active | Not Active | Not Active |  |  |  |  |  |  |  |  | 
30 | CC[C@H](C)C(=O)O[C@H]1C[C@@H](C)C=C2C=C[C@H](C)[C@H](CC[C@@H]3C[C@@H](O)CC(=O)O3)[C@H]21 [LOVASTATIN] | Not Active |  |  | Not Active | Not Active | Not Active | Not Active |  | 6.32 | 6.14 |  |  |  |  |  | 
31 | COBALT(II) ACETYLACETONATE | Not Active | Not Active | Not Active | Not Active | Not Active | Not Active | Not Active |  |  |  | Not Active | Not Active | Not Active | Not Active | Not Active | 
32 | CN(C(=O)CCCOc1ccc2[nH]c(=O)ccc2c1)C1CCCCC1 [CILOSTAMIDE] | Not Active | Not Active | Not Active | Not Active | Not Active | Not Active | Not Active |  |  |  |  |  |  |  |  | 

From ChEMBL document CHEMBL1909046, “DrugMatrix in vitro pharmacology data”
